Experimental data published in patent US10221139B2, “Inhibitors of histone demethylases” (Gilead Sciences, Inc., priority 2012, dated 2019).

Tests used:
GASC1 (KDM4C) = target: T1, GASC1 (KDM4C) (Homo sapiens, UniProt Q9H3R0); assay: Immunofluorescence assay in U2OS cells transfected with pCMVHA JMJD2C (H3K9me3 mark); type: cell-based; settings: 20 hours
T1 construct: Full length; host or cells: U2OS
T1 sequence (Q9H3R0 1-1056): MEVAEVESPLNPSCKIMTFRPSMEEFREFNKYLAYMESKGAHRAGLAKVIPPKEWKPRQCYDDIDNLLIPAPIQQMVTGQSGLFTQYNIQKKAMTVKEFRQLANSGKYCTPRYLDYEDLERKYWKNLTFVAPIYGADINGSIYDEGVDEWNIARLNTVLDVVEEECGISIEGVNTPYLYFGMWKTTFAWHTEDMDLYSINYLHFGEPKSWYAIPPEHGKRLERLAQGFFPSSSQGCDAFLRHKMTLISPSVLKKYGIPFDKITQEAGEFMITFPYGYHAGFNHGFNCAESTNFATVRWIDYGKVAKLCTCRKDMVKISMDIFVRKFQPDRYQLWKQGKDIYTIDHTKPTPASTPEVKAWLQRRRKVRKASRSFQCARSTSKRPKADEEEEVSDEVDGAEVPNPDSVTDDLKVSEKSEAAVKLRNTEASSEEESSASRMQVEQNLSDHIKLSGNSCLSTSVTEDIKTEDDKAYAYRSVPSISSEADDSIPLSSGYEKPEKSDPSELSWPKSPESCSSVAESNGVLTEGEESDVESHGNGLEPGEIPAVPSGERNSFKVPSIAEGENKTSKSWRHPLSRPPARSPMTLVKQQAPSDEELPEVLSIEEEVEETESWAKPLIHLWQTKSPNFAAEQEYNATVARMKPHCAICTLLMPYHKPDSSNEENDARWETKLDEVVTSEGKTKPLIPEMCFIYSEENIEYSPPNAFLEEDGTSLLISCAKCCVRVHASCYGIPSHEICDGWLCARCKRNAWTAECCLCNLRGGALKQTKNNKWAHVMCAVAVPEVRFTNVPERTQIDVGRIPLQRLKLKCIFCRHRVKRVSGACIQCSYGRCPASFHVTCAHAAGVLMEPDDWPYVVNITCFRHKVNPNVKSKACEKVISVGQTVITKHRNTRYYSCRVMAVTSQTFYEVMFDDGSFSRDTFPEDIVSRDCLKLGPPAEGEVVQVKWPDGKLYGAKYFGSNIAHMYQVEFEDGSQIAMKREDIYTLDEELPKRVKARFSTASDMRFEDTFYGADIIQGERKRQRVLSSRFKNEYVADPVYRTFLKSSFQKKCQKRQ
Protocol: (§1) U2OS cells were seeded 24 hours before transfection. Transfection was performed with Fugene HD transfection reagent as recommended by the manufacturer. 6 hours after transfection, the cells were harvested and seeded into multi well plates into media containing compound. The media used was DMEM containing 5% FBS and pen/strep. 20 hours after incubation of cells with compounds, the cells were washed once in PBS, harvested by fixation with formaldehyde 4% aqueous solution, and washed 2 times in PBS. Subsequently, the cells were permeabilized in PBS with 0.2% Triton X-100 for 10 min at room temperature. Blocking was performed in PBS with 0.2% Triton X-100 and 5% FBS for 45 min at room temperature. The cells were incubated with primary antibodies diluted 1 μg/ml in blocking solution over night at 4° C. The primary antibodies used in the assays were HA.11 (Covance, MMS-101P) and the antibody detecting the mark specified in the Table 6 below. After incubation with primary antibodies, the cells were washed 3 times with PBS, incubated with secondary antibodies diluted 1:1000 (Alexa fluor 594 goat anti rabbit IgG, Invitrogen, A11012; Alexa flour 488 donkey anti mouse IgG, Invitrogen, A21202) and Hoechst, 20 μg/ml (Sigma, 33342) in blocking solution, and washed again 3 times with PBS. Finally, PBS was added and high throughput imaging and analysis were performed by an IN Cell Analyzer 1000 (GE Healthcare). The robot software analyzed individual cells and divided these into HA^+ (transfected cells) and HA^− (non-transfected cells). The IC50 values in Table 7 below were based on an average measure of the staining of the mark specified in the Table 6 below in the transfected cells.

PLU1 (KDM5B) = target: T2, PLU1 (KDM5B) (Homo sapiens, UniProt Q9UGL1); assay: Immunofluorescence assay in U2OS cells transfected with pCMVHA PLU1 (H3K4me2 mark); type: cell-based; settings: 20 hours
T2 construct: (1-752); host or cells: U2OS
T2 sequence (Q9UGL1 1-752): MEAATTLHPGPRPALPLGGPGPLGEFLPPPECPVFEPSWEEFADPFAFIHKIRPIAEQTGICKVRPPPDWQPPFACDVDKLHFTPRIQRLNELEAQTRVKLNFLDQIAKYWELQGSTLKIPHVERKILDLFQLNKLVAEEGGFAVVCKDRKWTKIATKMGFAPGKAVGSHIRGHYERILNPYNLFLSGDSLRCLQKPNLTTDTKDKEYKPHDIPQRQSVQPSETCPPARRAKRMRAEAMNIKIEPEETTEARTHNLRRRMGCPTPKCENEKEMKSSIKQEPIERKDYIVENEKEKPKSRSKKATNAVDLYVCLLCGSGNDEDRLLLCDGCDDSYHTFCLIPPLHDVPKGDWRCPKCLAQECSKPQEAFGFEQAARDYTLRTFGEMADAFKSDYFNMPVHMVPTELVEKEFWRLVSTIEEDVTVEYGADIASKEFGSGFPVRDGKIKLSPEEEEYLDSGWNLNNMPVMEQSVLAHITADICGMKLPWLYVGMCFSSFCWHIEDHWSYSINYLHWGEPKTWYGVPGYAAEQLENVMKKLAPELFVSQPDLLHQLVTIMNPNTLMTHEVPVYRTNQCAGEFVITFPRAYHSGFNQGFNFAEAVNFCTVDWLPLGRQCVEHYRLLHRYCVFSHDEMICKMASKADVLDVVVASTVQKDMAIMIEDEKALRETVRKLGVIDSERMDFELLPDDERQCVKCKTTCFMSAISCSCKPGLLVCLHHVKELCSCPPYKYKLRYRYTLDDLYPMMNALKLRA
Protocol: as §1

Structure (SMILES): CN(C)CCCCNCc1cc(C(=O)O)ccn1 [2-({[4-(dimethylamino)butyl]amino}methyl)pyridine-4-carboxylic acid]
- IC50 (GASC1 (KDM4C)): > 50 µM
- IC50 (PLU1 (KDM5B)): 1 to 50 µM

Structure (SMILES): O=C(O)c1ccnc(CNCC[C@@H]2CCCN2Cc2ccccc2)c1 [2-[({2-[(2S)-1-benzylpyrrolidin-2-yl]ethyl}amino)methyl] pyridine-4-carboxylic acid]
- IC50 (GASC1 (KDM4C)): > 50 µM
- IC50 (PLU1 (KDM5B)): 1 to 50 µM

Structure (SMILES): O=C(O)c1ccnc(CNCCCn2ccnc2)c1 [drawing 296, 2-({[3-(1H-imidazol-1-yl)propyl]amino}methyl) pyridine-4-carboxylic acid]
- IC50 (GASC1 (KDM4C)): > 50 µM
- IC50 (PLU1 (KDM5B)): 1 to 50 µM

Structure (SMILES): CN(C)CCNCc1cc(C(=O)O)ccn1 [drawing 297, 2-({[2-(dimethylamino)ethyl]amino}methyl)pyridine-4-carboxylic acid]
- IC50 (GASC1 (KDM4C)): 1 to 50 µM
- IC50 (PLU1 (KDM5B)): 1 to 50 µM

Structure (SMILES): O=C(O)c1ccnc(CNC[C@@H](O)CO)c1 [drawing 298, 2-({[(2R)-2,3-dihydroxypropyl]amino}methyl)pyridine-4-carboxylic acid]
- IC50 (GASC1 (KDM4C)): > 50 µM
- IC50 (PLU1 (KDM5B)): > 50 µM

Structure (SMILES): O=C(O)c1ccnc(CNCC2CC2)c1 [drawing 299, 2-{[(cyclopropylmethyl)amino]methyl}pyridine-4-carboxylic acid]
- IC50 (GASC1 (KDM4C)): > 50 µM
- IC50 (PLU1 (KDM5B)): 1 to 50 µM

Structure (SMILES): CN(C)CCN(C)Cc1cc(C(=O)O)ccn1 [drawing 301, 2-({[2-(dimethylamino)ethyl](methyl)amino}methyl)pyridine-4-carboxylic acid]
- IC50 (GASC1 (KDM4C)): > 50 µM
- IC50 (PLU1 (KDM5B)): > 50 µM

Structure (SMILES): C#CCN(C)Cc1cc(C(=O)O)ccn1 [drawing 302, 2-{[methyl(prop-2-yn-1-yl)amino]methyl}pyridine-4-carboxylic acid]
- IC50 (GASC1 (KDM4C)): > 50 µM
- IC50 (PLU1 (KDM5B)): > 50 µM

Structure (SMILES): O=C(O)c1ccnc(CNCC(=O)N2CCCC2)c1 [drawing 305, 2-({[2-oxo-2-(pyrrolidin-1-yl)ethyl]amino}methyl) pyridine-4-carboxylic acid]
- IC50 (GASC1 (KDM4C)): 1 to 50 µM
- IC50 (PLU1 (KDM5B)): > 50 µM

Structure (SMILES): CCCCN(C)C(=O)CNCc1cc(C(=O)O)ccn1 [drawing 306, 2-[({[butyl(methyl)carbamoyl]methyl}amino)methyl] pyridine-4-carboxylic acid]
- IC50 (GASC1 (KDM4C)): 1 to 50 µM
- IC50 (PLU1 (KDM5B)): > 50 µM

Structure (SMILES): Cn1c(CNCc2cc(C(=O)O)ccn2)nc2ccccc21 [drawing 307, 2-({[(1-methyl-1H-1,3-benzodiazol-2-yl)methyl)amino}methyl) pyridine-4-carboxylic acid]
- IC50 (GASC1 (KDM4C)): > 50 µM
- IC50 (PLU1 (KDM5B)): 1 to 50 µM

Structure (SMILES): COCCN1CCN(C(=O)CNCc2cc(C(=O)O)ccn2)CC1 [drawing 308, 2-[({2-[4-(2-methoxyethyl)piperazin-1-yl]-2-oxoethyl}amino)methyl] pyridine-4-carboxylic acid]
- IC50 (GASC1 (KDM4C)): > 50 µM
- IC50 (PLU1 (KDM5B)): > 50 µM

Structure (SMILES): C=CCN(CC=C)C(=O)CNCc1cc(C(=O)O)ccn1 [drawing 309, 2-[({[bis(prop-2-en-1-yl)carbamoyl]methyl}amino)methyl]pyridine-4-carboxylic acid]
- IC50 (GASC1 (KDM4C)): 1 to 50 µM
- IC50 (PLU1 (KDM5B)): 1 to 50 µM

Structure (SMILES): O=C(O)c1ccnc(CNCCCNCCCN2CCCC2)c1 [drawing 310, 2-{[(3-{[3-(pyrrolidin-1-yl)propyl]amino}propyl)amino]methyl}pyridine-4-carboxylic acid]
- IC50 (GASC1 (KDM4C)): > 50 µM
- IC50 (PLU1 (KDM5B)): > 50 µM

Structure (SMILES): CN(CCCc1nccn1C)C(=O)CNCc1cc(C(=O)O)ccn1 [drawing 312, 2-{[({methyl[3-(1-methyl-1H-imidazol-2-yl)propyl]carbamoyl}methyl)amino]methyl}pyridine-4-carboxylic acid]
- IC50 (GASC1 (KDM4C)): 1 to 50 µM
- IC50 (PLU1 (KDM5B)): 1 to 50 µM

Structure (SMILES): CCN1CCCC1CNC(=O)CNCc1cc(C(=O)O)ccn1 (centres unmarked) [drawing 313, 2-{[({[(1-ethylpyrrolidin-2-yl)methyl]carbamoyl}methyl)amino]methyl}pyridine-4-carboxylic acid]
- IC50 (GASC1 (KDM4C)): > 50 µM
- IC50 (PLU1 (KDM5B)): 1 to 50 µM

Structure (SMILES): CN(Cc1ccnn1C)C(=O)CNCc1cc(C(=O)O)ccn1 [drawing 314, 2-{[({methyl[(1-methyl-1H-pyrazol-5-yl)methyl]carbamoyl}methyl)amino]methyl}pyridine-4-carboxylic acid]
- IC50 (GASC1 (KDM4C)): > 50 µM
- IC50 (PLU1 (KDM5B)): > 50 µM

Structure (SMILES): O=C(O)c1ccnc(CN[C@@H]2CCN(CCCc3ccccc3)C2)c1 [drawing 315, 2-({[(3R)-1-(3-phenylpropyl)pyrrolidin-3-yl]amino}methyl)pyridine-4-carboxylic acid]
- IC50 (GASC1 (KDM4C)): > 50 µM
- IC50 (PLU1 (KDM5B)): 1 to 50 µM

Structure (SMILES): O=C(CNCc1cc(C(=O)O)ccn1)NC1CCN(CCCc2ccccc2)CC1 [drawing 317, 2-{[({[1-(3-phenylpropyl)piperidin-4-yl]carbamoyl}methyl)amino]methyl}pyridine-4-carboxylic acid]
- IC50 (GASC1 (KDM4C)): > 50 µM
- IC50 (PLU1 (KDM5B)): > 50 µM

Structure (SMILES): O=C(CNCc1cc(C(=O)O)ccn1)NC1CCN(Cc2ccco2)CC1 [drawing 318, 2-{[({[1-(furan-2-ylmethyl)piperidin-4-yl]carbamoyl}methyl)amino]methyl}pyridine-4-carboxylic acid]
- IC50 (GASC1 (KDM4C)): > 50 µM
- IC50 (PLU1 (KDM5B)): > 50 µM

Structure (SMILES): O=C(CNCc1cc(C(=O)O)ccn1)NC1CCN(Cc2ccc(-c3ccccc3)o2)CC1 [drawing 319, 2-({[({1-[(5-phenylfuran-2-yl)methyl]piperidin-4-yl}carbamoyl)methyl]amino}methyl)pyridine-4-carboxylic acid]
- IC50 (GASC1 (KDM4C)): > 50 µM
- IC50 (PLU1 (KDM5B)): > 50 µM

Structure (SMILES): CN(CCCNCc1cc(C(=O)O)ccn1)Cc1ccccc1F [drawing 322, 2-{[(3-{[(2-fluorophenyl)methyl](methyl)amino}propyl)amino]methyl}pyridine-4-carboxylic acid]
- IC50 (GASC1 (KDM4C)): > 50 µM
- IC50 (PLU1 (KDM5B)): 1 to 50 µM

Structure (SMILES): O=C(O)c1ccnc(CNCCCN2CCCC2)c1 [drawing 325, 2-({[3-(pyrrolidin-1-yl)propyl]amino}methyl)pyridine-4-carboxylic acid]
- IC50 (GASC1 (KDM4C)): 1 to 50 µM
- IC50 (PLU1 (KDM5B)): 1 to 50 µM

Structure (SMILES): COC(=O)c1ccnc(CNCCCN2CCCC2)c1 [drawing 326, methyl 2-({[3-(pyrrolidin-1-yl)propyl]amino}methyl) pyridine-4-carboxylate]
- IC50 (GASC1 (KDM4C)): 1 to 50 µM
- IC50 (PLU1 (KDM5B)): 1 to 50 µM

Structure (SMILES): CCN(CC)CCCCNCc1cc(C(=O)O)ccn1 [drawing 327, 2-({[4-(diethylamino)butyl]amino}methyl)pyridine-4-carboxylic acid]
- IC50 (GASC1 (KDM4C)): 1 to 50 µM
- IC50 (PLU1 (KDM5B)): 1 to 50 µM
